Test results: PubChem BioAssay AID449764 (Southern Research Specialized Biocontainment Screening …, 2010)

Tested on: Mycobacterium tuberculosis H37Rv growth inhibition, no glycerol
Experiment: Confirmatory growth inhibition assay, Mycobacterium tuberculosis H37Rv, absence of glycerol (AID 449764);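 further: growth read after 7 days of incubation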
Details: for IC90: measured here: IC90 growth inhibition

## Clc1cc(Cl)cc(Nc2ncn[nH]2)c1
  IC50: 64.6 µM
  IC90: > 100 µM

## CN1/C(=C\C(=O)C[n+]2ccc(C(=O)c3ccccc3)cc2)C(C)(C)c2ccccc21
  IC50: 13.3 µM
  IC90: 21.1 µM

## Cc1nn(-c2ccccc2)c2c1C(c1ccc([N+](=O)[O-])cc1)N1C(=N2)C(=O)Nc2ccccc21 (stereo not given)
  IC50: 55.3 µM
  IC90: > 100 µM

## c1cc(Nc2cccc3nccnc23)c2nccnc2c1
  IC50: 24.4 µM
  IC90: 28.3 µM

## CN1OC(COC(=O)c2ccc(Cl)cc2Cl)CC1c1ccccc1 (stereo not given)
  IC50: 7.6 µM
  IC90: 22.3 µM

## COc1ccccc1C1CC(c2c(-c3ccccc3)c3cc(Cl)ccc3[nH]c2=O)=NN1S(C)(=O)=O (stereo not given)
  IC90: > 100 µM

## CC(C)(C)c1ccc(Cn2c(=N)n(CC(O)c3ccco3)c3ccccc32)cc1 (stereo not given)
  IC50: 23.3 µM
  IC90: 25.6 µM

## O=C(c1cccc(-c2ccco2)c1)N1CCCC(N2CCN(c3ccc(F)cc3)CC2)C1 (stereo not given)
  IC50: 74.1 µM
  IC90: 95 µM

## COc1ccc(/C=N/Nc2nncn2N)cc1Br
  IC50: 10.5 µM
  IC90: 13 µM

## Cc1cc(/C=N\NC(=O)c2cccs2)c(C)n1-c1ccc2ncccc2c1
  IC50: 36.8 µM
  IC90: 60.2 µM

## O=C(/C=C/c1cccnc1)c1cccc(O)c1
  IC50: 22.4 µM
  IC90: 24.1 µM

## O=C1N=C(N2CCC(Cc3ccccc3)CC2)S/C1=C/c1cn[nH]c1-c1ccccc1
  IC50: 78.9 µM
  IC90: > 100 µM

## Cc1ccc(NS(=O)(=O)c2ccc(NC(=O)CN(c3cc([N+](=O)[O-])ccc3C)S(C)(=O)=O)cc2)c(C)c1
  IC50: 33.1 µM
  IC90: > 100 µM

## CCOC(=O)CN(C#N)c1nc(N(C)C)nc(N(C)C)n1
  IC50: 12.8 µM
  IC90: 14.6 µM

## CC(C)Nc1nc(NC(C)C)nc(N(C)N)n1
  IC50: 32.2 µM
  IC90: 47.9 µM

## CCCCC(CC)CN=C(N)NC(N)=NCCCCCCN=C(N)NC(N)=NCC(CC)CCCC (stereo not given)
  IC50: 5.37 µM
  IC90: 5.97 µM

## CCCC(=O)OCCNc1cc(SCCC(=O)OC)c2nonc2c1[N+](=O)[O-]
  IC50: 5.85 µM
  IC90: 6.66 µM

## CCN(CC)C(=O)[C@H]1CC(CC(=O)NCC23CC4CC(CC(C4)C2)C3)C(=O)N2CCc3c([nH]c4ccccc34)[C@]12C (stereo not given in full)
  IC50: 19.4 µM
  IC90: 29.7 µM

## O=C(CCl)Nc1nccs1
  IC50: 4.87 µM
  IC90: 9.14 µM

## O=S(Cc1ccc(Br)cc1)Cc1nnc(SCc2ccc(Cl)cc2)n1-c1ccccc1 (stereo not given)
  IC50: 83.2 µM
  IC90: > 100 µM

## Clc1ccc(C(Cn2ccnc2)OCc2csc3c(Cl)cccc23)c(Cl)c1 (stereo not given)
  IC50: 17.7 µM
  IC90: 23.9 µM

## [O-][n+]1c2ccccc2c2n1CCN1CCOC21c1ccc(Cl)cc1 (stereo not given)
  IC50: 51 µM
  IC90: 79.3 µM

## O=C1C(=O)N(c2ccccc2)c2ccccc21
  IC50: 17.8 µM
  IC90: 34 µM

## CC(C)CCNC(=O)C(c1ccc(O)cc1)N(C(=O)C1COc2ccccc2O1)c1cccc(O)c1 (stereo not given)
  IC50: 71.6 µM
  IC90: > 100 µM

## CNC(=S)Nc1ccc(N2CCN(c3ccc(C(F)(F)F)cn3)CC2)nc1
  IC50: 9.42 µM
  IC90: > 100 µM

## Clc1ccc2c(c1)CCc1cccnc1C2=C1CCNCC1
  IC50: 32.9 µM
  IC90: 38.8 µM

## C=C1c2c(Cl)ccc(O)c2C(O)=C2C(=O)[C@]3(O)C(O)=C(C(N)=O)C(=O)[C@@H](N(C)C)[C@@H]3[C@@H](O)C12 (stereo not given in full)
  IC50: 4.52 µM
  IC90: 7.01 µM

## CCOc1ccc(/C=N/OCC(=O)Nc2cc(C)on2)cc1
  IC50: 90 µM
  IC90: > 100 µM

## COC(=O)N/N=C/c1c[n+]([O-])c2ccccc2[n+]1[O-]
  IC50: 18.7 µM
  IC90: 27.5 µM

## Cc1cccc(-c2oc3ccc(-c4ccc5c(c4)OCO5)cc3c2C#Cc2cncn2C)c1
  IC50: 2.86 µM
  IC90: 3.23 µM

## CCCOc1ccc(C(=O)NC(=S)NCc2cccnc2)cc1
  IC50: 35.1 µM
  IC90: 45.7 µM

## CN(c1ccccc1)c1ccc(/C=C/[N+](=O)[O-])cc1
  IC50: 15 µM
  IC90: 28 µM

## O=C(CN1CCC(n2nnc3cc(C(F)(F)F)ccc32)CC1)NCc1cccs1
  IC50: 37.2 µM
  IC90: 47.9 µM

## CCCSc1nn2c(=O)c3ccccc3nc2s1
  IC50: 14.7 µM
  IC90: 28.1 µM

## Nc1nc(Cl)cc(N2CCC(c3cc(-c4ccc(Cl)cc4Cl)n[nH]3)CC2)n1
  IC50: 25.9 µM
  IC90: 30.1 µM

## O=C(Nc1ccn(Cc2ccccc2F)n1)c1ccc(COc2ccccc2Cl)cc1
  IC50: 11.2 µM
  IC90: 16.1 µM

## CCc1ccc(N=C2NC(=O)/C(=C/c3cc(OC)c(O)c(OC)c3)S2)cc1
  IC50: 41.1 µM
  IC90: > 100 µM

## Cc1cc(C(=O)N/N=C\C(Br)=C\c2ccccc2)c(C)o1
  IC50: 44.2 µM
  IC90: 53.6 µM

## Cc1nc2sccn2c(=O)c1CCN1CCC(=C(c2ccccc2)c2ccc(F)cc2)CC1
  IC50: 35.8 µM
  IC90: 51.2 µM

## CC(C)(C)C1CCc2c(sc3nc(SCC(N)=O)nc(N)c23)C1 (stereo not given)
  IC50: 22.1 µM
  IC90: 33.5 µM

## CCCOC(=O)CSc1nc(N2CCOCC2)c2c(c1C#N)CC(C)(C)OC2
  IC50: 23.9 µM
  IC90: 42.5 µM

## Cc1cc(NC(=O)CCl)no1
  IC50: 2.63 µM
  IC90: 5.19 µM

## CC(C)(Oc1ccc(Cl)cc1)C(=O)OCC(=O)N1CCN(c2ccccc2)CC1
  IC50: 52 µM
  IC90: 80.9 µM
